Reference: PubChem BioAssay AID248 (DTP/NCI, 2004)
Where “and” joins values, the source holds several entries; their conditions need not be identical. Equal entries are not always repeated. Inconclusive results and toxic doses are left out. Cut-off read from the data, not from the text of the source: active = T/C of 150% or more; inactive = T/C below 125%.

Test system: L1210 leukemia ip in BDF1 mice, survival T/C
Assay: NCI In Vivo Anticancer Drug Screen. Data for tumor model L1210 Leukemia (intraperitoneal) in B6D2F1 (BDF1) mice
Conditions: endpoint: mean survival time, higher = longer survival
Summary of the method: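 Ratio derived from survival: compound-dosed mice over vehicle-dosed mice, all bearing a transplantable tumor.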

[1] = dose: 100.0 mg/kg/injection, schedule: Q04DX002 (ip), vehicle: Klucel (hydroxypropylcellulose) (HPC)
[2] = dose: 200.0 mg/kg/injection, schedule: Q04DX002 (ip), vehicle: Klucel (hydroxypropylcellulose) (HPC)
[3] = dose: 50.0 mg/kg/injection, schedule: Q01DX009 (ip), vehicle: Klucel (hydroxypropylcellulose) (HPC)
[4] = dose: 100.0 mg/kg/injection, schedule: Q01DX009 (ip), vehicle: Klucel (hydroxypropylcellulose) (HPC)
[5] = dose: 100.0 mg/kg/injection, schedule: Q04DX003 (ip), vehicle: Klucel (hydroxypropylcellulose) (HPC)
[6] = dose: 200.0 mg/kg/injection, schedule: Q04DX003 (ip), vehicle: Klucel (hydroxypropylcellulose) (HPC)
[7] = dose: 100.0 mg/kg/injection, schedule: Q01DX001 (ip), vehicle: saline
[8] = dose: 200.0 mg/kg/injection, schedule: Q01DX001 (ip), vehicle: saline
[9] = dose: 400.0 mg/kg/injection, schedule: Q01DX001 (ip), vehicle: saline
[10] = dose: 100.0 mg/kg/injection, schedule: Q01DX009 (ip), vehicle: saline
[11] = dose: 200.0 mg/kg/injection, schedule: Q01DX009 (ip), vehicle: saline
[12] = dose: 12.5 mg/kg/injection, schedule: Q01DX009 (ip), vehicle: saline
[13] = dose: 25.0 mg/kg/injection, schedule: Q01DX009 (ip), vehicle: saline
[14] = dose: 50.0 mg/kg/injection, schedule: Q01DX009 (ip), vehicle: saline
[15] = dose: 100.0 mg/kg/injection, schedule: Q04DX003 (ip), vehicle: saline
[16] = dose: 200.0 mg/kg/injection, schedule: Q04DX003 (ip), vehicle: saline
[17] = dose: 400.0 mg/kg/injection, schedule: Q04DX003 (ip), vehicle: saline
[18] = dose: 50.0 mg/kg/injection, schedule: Q01DX001 (ip), vehicle: saline
[19] = dose: 100.0 mg/kg/injection, schedule: Q04DX003 (ip), vehicle: saline with Tween-80
[20] = dose: 200.0 mg/kg/injection, schedule: Q01DX009 (ip), vehicle: Klucel (hydroxypropylcellulose) (HPC)
[21] = dose: 400.0 mg/kg/injection, schedule: Q01DX009 (ip), vehicle: Klucel (hydroxypropylcellulose) (HPC)
[22] = dose: 50.0 mg/kg/injection, schedule: Q01DX001 (ip), vehicle: carboxymethylcellulose (CMC)
[23] = dose: 100.0 mg/kg/injection, schedule: Q01DX001 (ip), vehicle: carboxymethylcellulose (CMC)
[24] = dose: 200.0 mg/kg/injection, schedule: Q01DX001 (ip), vehicle: carboxymethylcellulose (CMC)
[25] = dose: 50.0 mg/kg/injection, schedule: Q04DX002 (ip), vehicle: saline with Tween-80

Measured: T/C

N#C/C(=C\c1ccco1)C1CCC([N+](=O)[O-])CC1 (configuration not stated)
inactive: [1] 104 % of control | [2] 104 % of control | dose: 400.0 mg/kg/injection, schedule: Q04DX002 (ip), vehicle: Klucel (hydroxypropylcellulose) (HPC) 93 % of control

O=C1C(=C(C(F)(F)F)C(F)(F)F)CCc2ccccc21
inactive: [3] 95 % of control | dose: 100.0 mg/kg/injection, schedule: Q01DX001 (ip), vehicle: Klucel (hydroxypropylcellulose) (HPC) 91 % of control | [4] 93 % of control | dose: 200.0 mg/kg/injection, schedule: Q01DX001 (ip), vehicle: Klucel (hydroxypropylcellulose) (HPC) 91 % of control

ClCC/C=C\C=C\CCCl
inactive: dose: 75.0 mg/kg/injection, schedule: Q01DX001 (ip), vehicle: saline 93 % of control | dose: 75.0 mg/kg/injection, schedule: Q04DX003 (ip), vehicle: saline 107 % of control | dose: 150.0 mg/kg/injection, schedule: Q01DX001 (ip), vehicle: saline 105 % of control | dose: 150.0 mg/kg/injection, schedule: Q04DX003 (ip), vehicle: saline 111 % of control | dose: 300.0 mg/kg/injection, schedule: Q01DX001 (ip), vehicle: saline 93 % of control | dose: 300.0 mg/kg/injection, schedule: Q04DX003 (ip), vehicle: saline 107 % of control

CN(C(=O)C1C(C(=O)O)C2(Cl)C(Cl)=C(Cl)C1(Cl)C2(Cl)Cl)C1CCCCC1 (configuration not stated)
inactive: [1] 110 % of control | [2] 98 % of control

CC(=O)COc1ccc(C(=O)Cl)cc1
inactive: [5] 95 % of control | [6] 102 % of control | dose: 300.0 mg/kg/injection, schedule: Q04DX003 (ip), vehicle: Klucel (hydroxypropylcellulose) (HPC) 106 % of control

CC12CCC(C1)C(C)(C)/C2=N\N=C(N)N (configuration not stated)
inactive: dose: 15.0 mg/kg/injection, schedule: Q01DX Z (ip), vehicle: saline 93 % of control | dose: 30.0 mg/kg/injection, schedule: Q01DX Z (ip), vehicle: saline 103 % of control | dose: 60.0 mg/kg/injection, schedule: Q01DX Z (ip), vehicle: saline 93 % of control | dose: 120.0 mg/kg/injection, schedule: Q01DX Z (ip), vehicle: saline 97 % of control | dose: 188.0 mg/kg/injection, schedule: Q01DX Z (oral), vehicle: saline 103 % of control | dose: 375.0 mg/kg/injection, schedule: Q01DX Z (oral), vehicle: saline 105 % of control | dose: 750.0 mg/kg/injection, schedule: Q01DX Z (oral), vehicle: saline 91 % of control

CCOC(=O)C1(c2ccccc2)CCN(CC(O)COc2cc(C)ccc2C(C)C)CC1 (configuration not stated)
inactive: dose: 25.0 mg/kg/injection, schedule: Q01DX009 (ip), vehicle: Klucel (hydroxypropylcellulose) (HPC) 91 % of control | [3] 100 % of control | [4] 93 % of control and 97 % of control

CCN(C)CCC(CN)(CCN(C)CC)c1cccc2ccccc12
inactive: dose: 12.5 mg/kg/injection, schedule: Q04DX003 (ip), vehicle: saline 93 % of control | dose: 25.0 mg/kg/injection, schedule: Q04DX003 (ip), vehicle: saline 101 % of control | dose: 50.0 mg/kg/injection, schedule: Q04DX003 (ip), vehicle: saline 93 % of control

Cn1c2ccccc2c(=O)c2ccccc21
inactive: [7] 117 % of control | [8] 101 % of control | [9] 101 % of control

CC/C=C(CC)/C(=C/CC)CC
inactive: [7] 97 % of control | [10] 98 % of control | [8] 105 % of control | [11] 96 % of control | [9] 102 % of control

C=CC[N+]12CCCC1C(=C)CC2 (configuration not stated)
inactive: [12] 106 % of control | [13] 100 % of control | [14] 97 % of control and 106 % of control

O=C1CCCN(C2CCCCC2)CCC1O (configuration not stated)
inactive: dose: 100.0 mg/kg/injection, schedule: Q04DX003 (ip), vehicle: acetone 96 % of control | dose: 200.0 mg/kg/injection, schedule: Q04DX003 (ip), vehicle: acetone 93 % of control

Nc1cccc(NC=O)c1
inactive: dose: 25.0 mg/kg/injection, schedule: Q01DX009 (ip), vehicle: saline with Tween-80 102 % of control | dose: 50.0 mg/kg/injection, schedule: Q01DX009 (ip), vehicle: saline with Tween-80 104 % of control

CCOC(=O)CC(=O)NCCc1cccc(OC)c1OC
inactive: [15] 93 % of control | [16] 90 % of control | [17] 93 % of control

O=C(CCCC(=O)N/N=C/c1ccc(C(=O)O)cc1)N/N=C\c1ccc(C(=O)O)cc1
inactive: [18] 104 % of control | [7] 102 % of control | [8] 98 % of control | [9] 98 % of control

CNC1C(O)C(OC)OC2COC(c3ccccc3)OC21 (configuration not stated)
inactive: [19] 93 % of control | dose: 200.0 mg/kg/injection, schedule: Q04DX003 (ip), vehicle: saline with Tween-80 93 % of control

Cc1cc(C)c(S(=O)(=O)ON=C2c3ccccc3-c3ccccc32)c(C)c1
inactive: [4] 107 % of control | [5] 105 % of control | [20] 104 % of control | [6] 110 % of control | [21] 101 % of control | dose: 400.0 mg/kg/injection, schedule: Q04DX003 (ip), vehicle: Klucel (hydroxypropylcellulose) (HPC) 97 % of control

CCN(CC)CCOC(=O)c1ccc(C(Cl)Cl)cc1
inactive: [14] 88 % of control | [10] 88 % of control

O=C(NCCCCCCNC(=O)NS(=O)(=O)c1ccccc1)NS(=O)(=O)c1ccccc1
inactive: [22] 119 % of control | [23] 102 % of control | [24] 107 % of control | dose: 400.0 mg/kg/injection, schedule: Q01DX001 (ip), vehicle: carboxymethylcellulose (CMC) 105 % of control

Nc1cncnc1
inactive: [18] 112 % of control | [7] 107 % of control | [8] 98 % of control | [9] 102 % of control

C[N+](C)(C)CCN=C(N)N[N+](=O)[O-]
inactive: [10] 97 % of control | [15] 97 % of control | [11] 99 % of control | [16] 98 % of control | [17] 98 % of control

O=C(OCC1OCOC(COC(=O)c2ccccc2)C(OC(=O)c2ccccc2)C1OC(=O)c1ccccc1)c1ccccc1 (configuration not stated)
inactive: [25] 88 % of control

CCCCCCCC(=O)N1CCOCC1
inactive: dose: 50.0 mg/kg/injection, schedule: Q04DX003 (ip), vehicle: saline with Tween-80 96 % of control

Cc1ccc(NC2=NCCO2)cc1
inactive: [22] 104 % of control | [23] 96 % of control | [24] 98 % of control

CN(C)CCSCC(OC(=O)c1ccccc1)c1ccccc1 (configuration not stated)
inactive: [19] 94 % of control

CCCC(C=O)(CCN1CCCC1)c1cccc2ccccc12 (configuration not stated)
inactive: dose: 25.0 mg/kg/injection, schedule: Q04DX002 (ip), vehicle: saline with Tween-80 100 % of control | [25] 94 % of control | dose: 100.0 mg/kg/injection, schedule: Q04DX002 (ip), vehicle: saline with Tween-80 88 % of control

C#CC(=O)C(CC)CCCC (configuration not stated)
inactive: dose: 6.25 mg/kg/injection, schedule: Q01DX009 (ip), vehicle: saline with Tween-80 115 % of control | dose: 12.5 mg/kg/injection, schedule: Q01DX009 (ip), vehicle: saline with Tween-80 117 % of control

CN(C=O)c1ccc(C(=O)N(C(=O)NC2CCCCC2)C2CCCCC2)cc1
inactive: [7] 98 % of control | [8] 93 % of control | [9] 90 % of control

Cc1ncc(CO)c(/C=N/N=C(N)N)c1O
inactive: dose: 30.0 mg/kg/injection, schedule: Q01DX Z (oral), vehicle: methylcellulose (MC) 92 % of control | dose: 120.0 mg/kg/injection, schedule: Q01DX Z (oral), vehicle: methylcellulose (MC) 94 % of control | dose: 240.0 mg/kg/injection, schedule: Q01DX Z (oral), vehicle: methylcellulose (MC) 103 % of control

COc1cc2ccc3ccncc3c2cc1OC
inactive: [12] 104 % of control | [13] 106 % of control and 115 % of control | [14] 97 % of control and 111 % of control | [15] 86 % of control

O=C(NSN1CCOCC1)c1ccccc1
inactive: [1] 102 % of control | [2] 98 % of control

CN(Cc1ccccc1)C(=O)c1ccc(C(=O)N(C)Cc2ccccc2)cc1
inactive: [4] 97 % of control | [20] 108 % of control | [21] 102 % of control
